Data taken from article PMC3401275 (International Journal of Pharmaceutics, 2012).

Assays:
SMVT [1] = biological target: T1, SMVT (Canis lupus familiaris, UniProt A0A8I3MY61); details: MDCK-MDR1 monolayers, 0.5µCi/ml, no inhibitor
T1 sequence (A0A8I3MY61 1-636): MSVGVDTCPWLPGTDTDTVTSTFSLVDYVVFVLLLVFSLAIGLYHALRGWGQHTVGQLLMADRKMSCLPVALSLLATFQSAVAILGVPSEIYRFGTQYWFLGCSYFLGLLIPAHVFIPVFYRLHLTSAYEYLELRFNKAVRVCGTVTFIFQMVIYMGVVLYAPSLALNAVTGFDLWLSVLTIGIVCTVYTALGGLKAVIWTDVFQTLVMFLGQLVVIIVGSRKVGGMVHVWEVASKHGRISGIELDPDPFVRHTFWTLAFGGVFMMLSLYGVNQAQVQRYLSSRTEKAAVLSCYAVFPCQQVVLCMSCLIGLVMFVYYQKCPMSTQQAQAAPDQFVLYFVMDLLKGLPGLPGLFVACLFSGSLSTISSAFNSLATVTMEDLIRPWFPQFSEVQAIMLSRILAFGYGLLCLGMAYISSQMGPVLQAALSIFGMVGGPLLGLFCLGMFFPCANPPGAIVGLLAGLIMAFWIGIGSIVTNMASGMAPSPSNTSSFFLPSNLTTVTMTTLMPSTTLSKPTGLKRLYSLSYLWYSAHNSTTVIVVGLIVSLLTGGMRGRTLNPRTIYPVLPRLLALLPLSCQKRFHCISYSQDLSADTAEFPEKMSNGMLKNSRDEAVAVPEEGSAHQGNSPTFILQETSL

MDCK-MDR1 cells = experiment: Cellular accumulation on MDCK-MDR1 cell monolayers; details: 30 min incubation, Fig. 2
SMVT [2] = biological target: T1, SMVT; details: read-out: apparent affinity constant (Km) towards SMVT; MDCK-MDR1 cells, [3H] biotin uptake, 0.1–100µM, 30 min, Michaelis-Menten fit
SMVT [3] = biological target: T1, SMVT; type: cell-based, canine; details: MDCK-MDR1 cells, excess biotin, Fig. 4
SMVT [4] = biological target: T1, SMVT; details: read-out: IC50 for inhibition of [3H] biotin uptake; MDCK-MDR1 cells, 0.1–100µM, 30 min
Caco-2 cells [5] = experiment: Cellular accumulation on Caco-2 cell monolayers; details: 30 min incubation, Fig. 3
[6] = cited from earlier work
Caco-2 cells [7] = experiment: Cytotoxicity assay; type: cell-based, human; details: 100µM, 48 h

**Q.** For [^3H] Biotin, which “Permeability of [3H] biotin alone” value (SMVT [1]) is on record?
**A.** 4.74 ×10⁻⁶ cm/s

**Q.** Which results are given for `Nc1nc2c(ncn2COCCOC(=O)CCCC[C@@H]2SC[C@@H]3NC(=O)N[C@@H]32)c(=O)[nH]1` [B-ACV, Biotin-ACV]?
**A.** increase in the uptake compared to parent drug, ACV (MDCK-MDR1 cells): 6 times; Km (SMVT [2]): 30.9 ± 4.19 µM; uptake of prodrug in the presence of unlabeled biotin (SMVT [3]): significantly lower; IC50 (SMVT [4]): 14.84 ± 0.1 µM; increase in the uptake compared to ACV (Caco-2 cells [5]): 3.5 times

**Q.** Which results are given for `CCCCCCC(CCCCCCCCCCC(=O)OCCOCn1cnc2c(=O)[nH]c(N)nc21)OC(=O)CCCC[C@@H]1SC[C@@H]2NC(=O)N[C@@H]21` (stereo partly shown) [B-12HS-ACV, biotin-12hydroxystearicacid-acyclovir]?
**A.** Km (SMVT [2]): 24 ± 3.2 µM; uptake of prodrug in the presence of unlabeled biotin (SMVT [3]): significantly lower; IC50 (SMVT [4]): 8.17 ± 0.09 µM; increase in the uptake compared to ACV (Caco-2 cells [5]): 8.3 times

**Q.** With `CC(C)[C@H](N)C(=O)OCCOCn1cnc2c(=O)[nH]c(N)nc21` [VACV, Valacyclovir] as the molecule, how does the “increase of the oral bioavailability of ACV” value ([6]; ref Balimane et al., 1998, de Vrueh et al., Guo et al., 1999, Jacobson, 1993, Perry and Faulds, 1996, Soul-Lawton et al., 1995, Talluri et al., 2008) read?
**A.** 3 to 5 fold

**Q.** For `Nc1nc2c(ncn2COCCO)c(=O)[nH]1` [ACV, 2-amino-9-((2-hydroxyethoxy)methyl)-1H-purin-6(9H)-one], which oral bioavailability ([6]; in vivo, po) is on record?
**A.** 15–30%

**Q.** What about the cytotoxic effect (Caco-2 cells [7]) of the same molecule?
**A.** Neither ACV nor its targeted lipid prodrugs demonstrate any cytotoxic effect

**Q.** Which Km (SMVT [2]) does the source give for “biotin-ricinoleicacid-acyclovir [B-R-ACV]” here?
**A.** 20.2 ± 1.74 µM

**Q.** And the “uptake of prodrug in the presence of unlabeled biotin” value (SMVT [3])?
**A.** significantly lower

**Q.** What about the IC50 (SMVT [4]) of the same molecule?
**A.** 8.04 ± 0.07 µM
